Laboratory results published in patent US11434221B2, “Pyrazine-4-carbamate or -urea derivatives as herbicides” (Syngenta Participations AG, priority 2017, dated 2022).

Assays:
Format in all cases: in vivo
Design in all cases: key: 5=total damage to plant; 0=no damage to plant
[1] = test system: Alopecurus myosuroides (ALOMY); test: Pre-emergence herbicidal activity, glasshouse pot test; settings: Rate 1000 g/ha; sprayed one day after sowing; evaluated after 13 days
Experimental: (§1) Seeds of a variety of test species were sown in standard soil in pots: Triticum aestivium (TRZAW), Avena fatua (AVEFA), Alopecurus myosuroides (ALOMY), Echinochloa crus-galli (ECHCG), Lolium perenne (LOLPE), and Setaria faberi (SETFA). After cultivation for one day (pre-emergence) under controlled conditions in a glasshouse (at 24/16° C., day/night; 14 hours light; 65% humidity), the plants were sprayed with an aqueous spray solution derived from the formulation of the technical active ingredient in acetone/water (50:50) solution containing 0.5% Tween 20 (polyoxyethelyene sorbitan monolaurate, CAS RN 9005-64-5). The test plants were then grown in a glasshouse under controlled conditions (at 24/16° C., day/night; 14 hours light; 65% humidity) and watered twice daily. After 13 days, the test was evaluated (5=total damage to plant; 0=no damage to plant).

[2] = test system: Avena fatua (AVEFA); test: as above; settings: Rate 1000 g/ha; sprayed one day after sowing; evaluated after 13 days
Experimental: as §1

[3] = test system: Echinochloa crus-galli (ECHCG); test: as above; settings: Rate 1000 g/ha; sprayed one day after sowing; evaluated after 13 days
Experimental: as §1

[4] = test system: Lolium perenne (LOLPE); test: as above; settings: Rate 1000 g/ha; sprayed one day after sowing; evaluated after 13 days
Experimental: as §1

[5] = test system: Setaria faberi (SETFA); test: as above; settings: Rate 1000 g/ha; sprayed one day after sowing; evaluated after 13 days
Experimental: as §1

[6] = test system: Triticum aestivium (TRZAW); test: as above; settings: Rate 1000 g/ha; sprayed one day after sowing; evaluated after 13 days
Experimental: as §1

[7] = test system: Alopecurus myosuroides (ALOMY); test: Post-emergence herbicidal activity, glasshouse pot test; settings: Rate 1000 g/ha; sprayed after 8 days cultivation; evaluated after 13 days
Experimental: (§2) Seeds of a variety of test species were sown in standard soil in pots: Triticum aestivium (TRZAW), Avena fatua (AVEFA), Alopecurus myosuroides (ALOMY), Echinochloa crus-galli (ECHCG), Lolium perenne (LOLPE), and Setaria faberi (SETFA). After 8 days cultivation (post-emergence) under controlled conditions in a glasshouse (at 24/16° C., day/night; 14 hours light; 65% humidity), the plants were sprayed with an aqueous spray solution derived from the formulation of the technical active ingredient in acetone/water (50:50) solution containing 0.5% Tween 20 (polyoxyethelyene sorbitan monolaurate, CAS RN 9005-64-5). The test plants were then grown in a glasshouse under controlled conditions (at 24/16° C., day/night; 14 hours light; 65% humidity) and watered twice daily. After 13 days, the test was evaluated (5=total damage to plant; 0=no damage to plant).

[8] = test system: Avena fatua (AVEFA); test: as above; settings: Rate 1000 g/ha; sprayed after 8 days cultivation; evaluated after 13 days
Experimental: as §2

[9] = test system: Echinochloa crus-galli (ECHCG); test: as above; settings: Rate 1000 g/ha; sprayed after 8 days cultivation; evaluated after 13 days
Experimental: as §2

[10] = test system: Lolium perenne (LOLPE); test: as above; settings: Rate 1000 g/ha; sprayed after 8 days cultivation; evaluated after 13 days
Experimental: as §2

[11] = test system: Setaria faberi (SETFA); test: as above; settings: Rate 1000 g/ha; sprayed after 8 days cultivation; evaluated after 13 days
Experimental: as §2

[12] = test system: Triticum aestivium (TRZAW); test: as above; settings: Rate 1000 g/ha; sprayed after 8 days cultivation; evaluated after 13 days
Experimental: as §2

Structure (SMILES): CC(C)(C)OC(=O)Nc1ncc(-c2cncc(F)c2)nc1C(F)(F)F [Compound H4]
- Control of weed species after pre-emergence application, ALOMY (damage score 0-5) [1]: 0
- Control of weed species after pre-emergence application, AVEFA (damage score 0-5) [2]: 3
- Control of weed species after pre-emergence application, ECHCG (damage score 0-5) [3]: 4
- Control of weed species after pre-emergence application, LOLPE (damage score 0-5) [4]: 1
- Control of weed species after pre-emergence application, SETFA (damage score 0-5) [5]: 5
- Control of weed species after pre-emergence application, TRAZW (damage score 0-5) [6]: 0
- Control of weed species after post-emergence application, ALOMY (damage score 0-5) [7]: 0
- Control of weed species after post-emergence application, AVEFA (damage score 0-5) [8]: 3
- Control of weed species after post-emergence application, ECHCG (damage score 0-5) [9]: 5
- Control of weed species after post-emergence application, LOLPE (damage score 0-5) [10]: 2
- Control of weed species after post-emergence application, SETFA (damage score 0-5) [11]: 5
- Control of weed species after post-emergence application, TRAZW (damage score 0-5) [12]: 1

Structure (SMILES): CSc1nc(-c2cncc(F)c2)cnc1NC(=O)OC(C)(C)C [Compound H24]
- Control of weed species after pre-emergence application, ALOMY (damage score 0-5) [1]: 0
- Control of weed species after pre-emergence application, AVEFA (damage score 0-5) [2]: 2
- Control of weed species after pre-emergence application, ECHCG (damage score 0-5) [3]: 2
- Control of weed species after pre-emergence application, LOLPE (damage score 0-5) [4]: 1
- Control of weed species after pre-emergence application, SETFA (damage score 0-5) [5]: 5
- Control of weed species after pre-emergence application, TRAZW (damage score 0-5) [6]: 0
- Control of weed species after post-emergence application, ALOMY (damage score 0-5) [7]: 0
- Control of weed species after post-emergence application, AVEFA (damage score 0-5) [8]: 3
- Control of weed species after post-emergence application, ECHCG (damage score 0-5) [9]: 4
- Control of weed species after post-emergence application, LOLPE (damage score 0-5) [10]: 2
- Control of weed species after post-emergence application, SETFA (damage score 0-5) [11]: 5
- Control of weed species after post-emergence application, TRAZW (damage score 0-5) [12]: 0

Structure (SMILES): COc1nc(-c2cncc(F)c2)cnc1NC(=O)OC(C)(C)C [Compound H7]
- Control of weed species after pre-emergence application, ALOMY (damage score 0-5) [1]: 0
- Control of weed species after pre-emergence application, AVEFA (damage score 0-5) [2]: 1
- Control of weed species after pre-emergence application, ECHCG (damage score 0-5) [3]: 3
- Control of weed species after pre-emergence application, LOLPE (damage score 0-5) [4]: 0
- Control of weed species after pre-emergence application, SETFA (damage score 0-5) [5]: 5
- Control of weed species after pre-emergence application, TRAZW (damage score 0-5) [6]: 0
- Control of weed species after post-emergence application, ALOMY (damage score 0-5) [7]: 0
- Control of weed species after post-emergence application, AVEFA (damage score 0-5) [8]: 3
- Control of weed species after post-emergence application, ECHCG (damage score 0-5) [9]: 5
- Control of weed species after post-emergence application, LOLPE (damage score 0-5) [10]: 2
- Control of weed species after post-emergence application, SETFA (damage score 0-5) [11]: 5
- Control of weed species after post-emergence application, TRAZW (damage score 0-5) [12]: 1

Structure (SMILES): CC(C)(C)OC(=O)N(C(=O)OC(C)(C)C)c1ncc(-c2cncnc2)nc1C(F)(F)F [Compound H1]
- Control of weed species after pre-emergence application, ALOMY (damage score 0-5) [1]: 0
- Control of weed species after pre-emergence application, AVEFA (damage score 0-5) [2]: 2
- Control of weed species after pre-emergence application, ECHCG (damage score 0-5) [3]: 4
- Control of weed species after pre-emergence application, LOLPE (damage score 0-5) [4]: 1
- Control of weed species after pre-emergence application, SETFA (damage score 0-5) [5]: 4
- Control of weed species after pre-emergence application, TRAZW (damage score 0-5) [6]: 0
- Control of weed species after post-emergence application, ALOMY (damage score 0-5) [7]: 0
- Control of weed species after post-emergence application, AVEFA (damage score 0-5) [8]: 4
- Control of weed species after post-emergence application, ECHCG (damage score 0-5) [9]: 5
- Control of weed species after post-emergence application, LOLPE (damage score 0-5) [10]: 3
- Control of weed species after post-emergence application, SETFA (damage score 0-5) [11]: 5
- Control of weed species after post-emergence application, TRAZW (damage score 0-5) [12]: 0

Structure (SMILES): Cc1nc(-c2cncnc2)cnc1NC(=O)OC(C)(C)C [Compound H23]
- Control of weed species after pre-emergence application, ALOMY (damage score 0-5) [1]: 0
- Control of weed species after pre-emergence application, AVEFA (damage score 0-5) [2]: 1
- Control of weed species after pre-emergence application, ECHCG (damage score 0-5) [3]: 2
- Control of weed species after pre-emergence application, LOLPE (damage score 0-5) [4]: 0
- Control of weed species after pre-emergence application, SETFA (damage score 0-5) [5]: 4
- Control of weed species after pre-emergence application, TRAZW (damage score 0-5) [6]: 0
- Control of weed species after post-emergence application, ALOMY (damage score 0-5) [7]: 1
- Control of weed species after post-emergence application, AVEFA (damage score 0-5) [8]: 3
- Control of weed species after post-emergence application, ECHCG (damage score 0-5) [9]: 4
- Control of weed species after post-emergence application, LOLPE (damage score 0-5) [10]: 2
- Control of weed species after post-emergence application, SETFA (damage score 0-5) [11]: 5
- Control of weed species after post-emergence application, TRAZW (damage score 0-5) [12]: 1

Structure (SMILES): CC(C)(C)OC(=O)N(C(=O)OC(C)(C)C)c1ncc(-c2cncc(F)c2)nc1Br [Compound H16]
- Control of weed species after pre-emergence application, ALOMY (damage score 0-5) [1]: 0
- Control of weed species after pre-emergence application, AVEFA (damage score 0-5) [2]: 0
- Control of weed species after pre-emergence application, ECHCG (damage score 0-5) [3]: 1
- Control of weed species after pre-emergence application, LOLPE (damage score 0-5) [4]: 0
- Control of weed species after pre-emergence application, SETFA (damage score 0-5) [5]: 1
- Control of weed species after pre-emergence application, TRAZW (damage score 0-5) [6]: 0
- Control of weed species after post-emergence application, ALOMY (damage score 0-5) [7]: 0
- Control of weed species after post-emergence application, AVEFA (damage score 0-5) [8]: 1
- Control of weed species after post-emergence application, ECHCG (damage score 0-5) [9]: 1
- Control of weed species after post-emergence application, LOLPE (damage score 0-5) [10]: 2
- Control of weed species after post-emergence application, SETFA (damage score 0-5) [11]: 3
- Control of weed species after post-emergence application, TRAZW (damage score 0-5) [12]: 0

Structure (SMILES): CC(C)(C)OC(=O)N(C(=O)OC(C)(C)C)c1ncc(-c2cncnc2)nc1C(F)F [Compound H31]
- Control of weed species after pre-emergence application, ALOMY (damage score 0-5) [1]: 2
- Control of weed species after pre-emergence application, AVEFA (damage score 0-5) [2]: 1
- Control of weed species after pre-emergence application, ECHCG (damage score 0-5) [3]: 2
- Control of weed species after pre-emergence application, LOLPE (damage score 0-5) [4]: 0
- Control of weed species after pre-emergence application, SETFA (damage score 0-5) [5]: 2
- Control of weed species after pre-emergence application, TRAZW (damage score 0-5) [6]: 0
- Control of weed species after post-emergence application, ALOMY (damage score 0-5) [7]: 1
- Control of weed species after post-emergence application, AVEFA (damage score 0-5) [8]: 3
- Control of weed species after post-emergence application, ECHCG (damage score 0-5) [9]: 5
- Control of weed species after post-emergence application, LOLPE (damage score 0-5) [10]: 2
- Control of weed species after post-emergence application, SETFA (damage score 0-5) [11]: 5
- Control of weed species after post-emergence application, TRAZW (damage score 0-5) [12]: 1

Structure (SMILES): C=C(C)c1nc(-c2cncc(F)c2)cnc1N(C(=O)OC(C)(C)C)C(=O)OC(C)(C)C [Compound H11]
- Control of weed species after pre-emergence application, ALOMY (damage score 0-5) [1]: 1
- Control of weed species after pre-emergence application, AVEFA (damage score 0-5) [2]: 0
- Control of weed species after pre-emergence application, ECHCG (damage score 0-5) [3]: 3
- Control of weed species after pre-emergence application, LOLPE (damage score 0-5) [4]: 2
- Control of weed species after pre-emergence application, SETFA (damage score 0-5) [5]: 4
- Control of weed species after pre-emergence application, TRAZW (damage score 0-5) [6]: 0
- Control of weed species after post-emergence application, ALOMY (damage score 0-5) [7]: 0
- Control of weed species after post-emergence application, AVEFA (damage score 0-5) [8]: 2
- Control of weed species after post-emergence application, ECHCG (damage score 0-5) [9]: 3
- Control of weed species after post-emergence application, LOLPE (damage score 0-5) [10]: 2
- Control of weed species after post-emergence application, SETFA (damage score 0-5) [11]: 5
- Control of weed species after post-emergence application, TRAZW (damage score 0-5) [12]: 0

Structure (SMILES): Cc1nc(-c2cncc(F)c2)cnc1N(C)C(=O)OC(C)(C)C [Compound H19, tert-butyl N-(3-methyl-5-(5-fluoropyridin-3-yl)-pyrazin-2-yl)-N-methyl-carbamate]
- Control of weed species after pre-emergence application, ALOMY (damage score 0-5) [1]: 0
- Control of weed species after pre-emergence application, AVEFA (damage score 0-5) [2]: 2
- Control of weed species after pre-emergence application, ECHCG (damage score 0-5) [3]: 4
- Control of weed species after pre-emergence application, LOLPE (damage score 0-5) [4]: 1
- Control of weed species after pre-emergence application, SETFA (damage score 0-5) [5]: 5
- Control of weed species after pre-emergence application, TRAZW (damage score 0-5) [6]: 0
- Control of weed species after post-emergence application, ALOMY (damage score 0-5) [7]: 0
- Control of weed species after post-emergence application, AVEFA (damage score 0-5) [8]: 3
- Control of weed species after post-emergence application, ECHCG (damage score 0-5) [9]: 4
- Control of weed species after post-emergence application, LOLPE (damage score 0-5) [10]: 2
- Control of weed species after post-emergence application, SETFA (damage score 0-5) [11]: 5
- Control of weed species after post-emergence application, TRAZW (damage score 0-5) [12]: 0
